What was measured:
[1] = Stability in bio-relevant media (SGF, Fasted SIF, Fed SIF) at 37° C.; format: physicochemical
Method: Stability in buffer solutions pH 2 to pH 8 at 25° C., and in bio-relevant media (SGF pH 1.6, Fasted SIF pH 6.5 and Fed SIF pH 5.0) at 37° C., during 24 hours is monitored. The samples are analysed by LC/MS.
SGF (Simulated Gastric Fluid) pH 1.6
Fasted SIF (Simulated Intestinal Fluid) pH 6.5
Fed SIF (Simulated Intestinal Fluid) pH 5.0
Flow: 0.3 mL/min Column temp.: 25° C. Sample temp.: 25° C. (for stability assay in buffer solutions) • 37° C. (for stability assay in bio-relevant media) Injector volume: 3 μL (without injection program) MS Conditions: Instrument HP MS API-ES, positive ion mode Mass Range: 150-1500 Fragmentor: 100 Gain: 1.0 Treshold: 150 Step size: 0.20 Gas Temperature: 350° C. Drying Gas Flow: 13 L/min Nebulizer Pressure: 35 psig Capillary Voltage Positive 4000 V • Negative 4000 V Sample Preparation: a) For Stability Assay in Buffer Solutions
b) For Stability Assay in Bio-Relevat Media
b1) For SGF Media pH 1.6 Testing:
Compounds are dissolved in SGF media pH 1.6 to give 0.2 mg/mL solution in case of compounds 1 and 2, and to give 0.1 mg/mL solution in case of compound 3. Solutions are then stored in a water bath at 37° C. and removed at the proper time point for LC/MS analysis. Before analysis, pH values of prepared sample solutions are checked and adjusted if necessary.
b2) For Fasted SIF Media pH 6.5 Testing:
Compounds are dissolved in Fasted SIF media pH 6.5 to give 2 mg/mL solution. Solutions are then dispatched into vials that are stored in a water bath at 37° C. and removed at the proper time point and diluted 10 times with CH3CN for LC/MS analysis. Before analysis, pH values of prepared sample solutions are checked and adjusted if necessary.
b3) For Fed SIF Media pH 5.0 Testing:
Compounds are dissolved in Fed SIF media pH 5.0 to give 2 mg/mL solution. Solutions are then dispatched into vials that are stored in a water bath at 37° C. and removed at the proper time point and diluted 40 times with CH3CN for LC/MS analysis. Before analysis, pH values of prepared sample solutions are checked and adjusted if necessary.

[2] = tested on: Escherichia coli ATCC25922; test: Anti-bacterial screening, broth microdilution MIC; format: cell-based; conditions: read-out: minimal inhibitory concentration (MIC)
Method: (§1) Whole-cell antimicrobial activity of compounds against clinically relevant bacteria (Staphylococcus aureus ATCC13709, Streptococcus pneumoniae ATCC49619, Streptococcus pyogenes ATCC700294, Moraxella catarrhalis ATCC23246, Haemophilus influenzae ATCC49247 and Escherichia coli ATCC25922) is determined by broth microdilution using the Clinical and Laboratory Standards (CLSI) recommended procedure (Document M7-[…], Methods for Dilution Susceptibility Tests for Bacteria that Grow Aerobically). Compounds are dissolved in DMSO to produce a 50 mM stock solution. The stock solution is diluted to a concentration of 128 μg/mL in appropriate media (Haemophilus Test Medium for Haemophilus influenzae, Mueller-Hinton Broth for Staphylococcus aureus, Moraxella catarrhalis and Escherichia coli, and Mueller-Hinton Broth supplemented with 5% horse serum for Streptococcus pyogenes and Streptococcus pneumoniae) to produce a working solution. A Tecan Genesis 150 Workstation (Tecan Group Ltd. Mannedorf, Switzerland) is used to prepare serial two-fold dilutions (50 μL aliquots) of the working solution in a U-shape bottom 96 well microtitre plate. After the compounds are diluted, a 50 μL aliquot of the test isolate ( 1×10^6 cfu/ml) is added to each well of the microtitre plate. The final test concentrations range from 0.125-64 μg/mL. Inoculated plates are incubated at 35° C. in ambient air for 18 to 24 hours. The minimum inhibitory concentration (MIC) is determined as the lowest concentration of compound that inhibited visible growth.

[3] = tested on: Haemophilus influenzae ATCC49247; test: Anti-bacterial screening, broth microdilution MIC; format: cell-based; conditions: read-out: minimal inhibitory concentration (MIC)
Method: as §1

[4] = tested on: Moraxella catarrhalis ATCC23246; test: Anti-bacterial screening, broth microdilution MIC; format: cell-based; conditions: read-out: minimal inhibitory concentration (MIC)
Method: as §1

[5] = tested on: Staphylococcus aureus ATCC13709; test: Anti-bacterial screening, broth microdilution MIC; format: cell-based; conditions: read-out: minimal inhibitory concentration (MIC)
Method: as §1

[6] = tested on: Streptococcus pneumoniae ATCC49619; test: Anti-bacterial screening, broth microdilution MIC; format: cell-based; conditions: read-out: minimal inhibitory concentration (MIC)
Method: as §1

[7] = tested on: Streptococcus pyogenes ATCC700294; test: Anti-bacterial screening, broth microdilution MIC; format: cell-based; conditions: read-out: minimal inhibitory concentration (MIC)
Method: as §1

[8] = tested on: Lung neutrophilia induced by bacterial lipopolysaccharide (LPS); test: Lung neutrophilia induced by bacterial lipopolysaccharide (LPS) in male BALB/cJ mice; format: in vivo; conditions: average; single dose 200 mg/kg i.p.; vs LPS challenged untreated animals
Method: For intraperitoneal administration (i.p.) compounds are dissolved in a final concentration of 10 mg/mL. The required amount of compound is first dissolved in dimethylsulfoxide (DMSO, Sigma) and then diluted with 0.5% (w/v) methyl-cellulose so that the final DMSO concentration is 5% (v/v). The obtained solution is applied in a dose volume of 0.2 mL per 10 g of animal. Therefore, the compound dose is 200 mg/kg.
Male BALB/cJ mice (Charles River, France), with an average weight of ˜30 g are randomly grouped (n=8 in testing group, 10 in positive control and 8 in negative control). Mice receive intraperitoneally (i.p.) a single dose of 200 mg/kg of test compound. Two hours after administration, 2 μg of LPS (from Escherichia coli serotype 0111:B4, Sigma), dissolved in sterile PBS in a volume of 60 μL, is intranasally administered to all experimental groups except the negative control group, which receive the same volume of vehicle (PBS). Animals are sacrificed approximately 24 hours after application of LPS in order to obtain bronchioalveolar lavage fluid (BALF), which is used to determine absolute number of cells and the percentage of neutrophils. Results are expressed as percentage decrease in total cell number and number of neutrophils in BALF of treated animals compared to positive control (LPS challenged, but untreated animals).

CC[C@H]1OC(=O)[C@H](C)[C@@H](O[C@H]2C[C@@](C)(OC)[C@@H](OC(=O)CCN(CC)CC)[C@H](C)O2)[C@H](C)[C@@H](O[C@@H]2O[C@H](C)C[C@H](NC)[C@H]2O)[C@](C)(OC)C[C@@H](C)C(=O)N[C@H](C)[C@@H](O)[C@]1(C)O [Example 2, 3′-N-Demethyl-4″-O-(3-diethylaminopropionoyl)-6-O-methyl-9a-aza-9a-homoerythromycin A]
stability in bio-relevant media SGF pH 1.6 and Fasted SIF pH 6.5 ([1]; 37° C., during 24 hours): Example 2 showed instability in bio-relevant media SGF pH 1.6 and in Fasted SIF pH 6.5. | Percentage (Area %) of the compound observed in Bio-relevant media ([1]; Fasted SIF pH 6.5, 37° C., 1 h): 99.6 Area % | Percentage (Area %) of the compound observed in Bio-relevant media ([1]; Fasted SIF pH 6.5, 37° C., 2 h): 98.0 Area % | Percentage (Area %) of the compound observed in Bio-relevant media ([1]; Fasted SIF pH 6.5, 37° C., 3 h): 93.0 Area % | Percentage (Area %) of the compound observed in Bio-relevant media ([1]; Fasted SIF pH 6.5, 37° C., 4 h): 89.7 Area % | Percentage (Area %) of the compound observed in Bio-relevant media ([1]; Fasted SIF pH 6.5, 37° C., 5 h): 86.7 Area % | Percentage (Area %) of the compound observed in Bio-relevant media ([1]; Fasted SIF pH 6.5, 37° C., Initial): 100 Area % | Percentage (Area %) of the compound observed in Bio-relevant media ([1]; Fed SIF pH 5.0, 37° C., 1 h): 99.7 Area % | Percentage (Area %) of the compound observed in Bio-relevant media ([1]; Fed SIF pH 5.0, 37° C., 2 h): 99.6 Area % | Percentage (Area %) of the compound observed in Bio-relevant media ([1]; Fed SIF pH 5.0, 37° C., 3 h): 99.4 Area % | Percentage (Area %) of the compound observed in Bio-relevant media ([1]; Fed SIF pH 5.0, 37° C., 4 h): 98.7 Area % | Percentage (Area %) of the compound observed in Bio-relevant media ([1]; Fed SIF pH 5.0, 37° C., 5 h): 98.6 Area % | Percentage (Area %) of the compound observed in Bio-relevant media ([1]; Fed SIF pH 5.0, 37° C., 24 h): 97.4 Area % | Percentage (Area %) of the compound observed in Bio-relevant media ([1]; Fed SIF pH 5.0, 37° C., Initial): 100 Area % | Percentage (Area %) of the compound observed in Bio-relevant media ([1]; SGF pH 1.6, 37° C., 15): 83.9 Area % | Percentage (Area %) of the compound observed in Bio-relevant media ([1]; SGF pH 1.6, 37° C., 1 h): 99.3 Area % | Percentage (Area %) of the compound observed in Bio-relevant media ([1]; SGF pH 1.6, 37° C., 2 h): 99.3 Area % | Percentage (Area %) of the compound observed in Bio-relevant media ([1]; SGF pH 1.6, 37° C., 3 h): 96.6 Area % | Percentage (Area %) of the compound observed in Bio-relevant media ([1]; SGF pH 1.6, 37° C., 4 h): 92.9 Area % | Percentage (Area %) of the compound observed in Bio-relevant media ([1]; SGF pH 1.6, 37° C., 5 h): 92.3 Area % | Percentage (Area %) of the compound observed in Bio-relevant media ([1]; SGF pH 1.6, 37° C., 6 h): 91.1 Area % | Percentage (Area %) of the compound observed in Bio-relevant media ([1]; SGF pH 1.6, 37° C., 8 h): 90.1 Area % | Percentage (Area %) of the compound observed in Bio-relevant media ([1]; SGF pH 1.6, 37° C., 10 h): 87.2 Area % | Percentage (Area %) of the compound observed in Bio-relevant media ([1]; SGF pH 1.6, 37° C., 12 h): 85.4 Area % | Percentage (Area %) of the compound observed in Bio-relevant media ([1]; SGF pH 1.6, 37° C., 18 h): 82.4 Area % | Percentage (Area %) of the compound observed in Bio-relevant media ([1]; SGF pH 1.6, 37° C., 21 h): 81.0 Area % | Percentage (Area %) of the compound observed in Bio-relevant media ([1]; SGF pH 1.6, 37° C., Initial): 100 Area % | MIC [2]: > 64 µg/mL | MIC [3]: > 64 µg/mL | MIC [4]: > 64 µg/mL | MIC [5]: > 64 µg/mL | MIC [6]: > 64 µg/mL | MIC [7]: > 64 µg/mL | inhibition of the number of neutrophils in BALF [8]: more than 70%

Reference: patent US8227428B2, “Anti-infammatory macrolide” (Glaxo Group Limited, priority 2009, dated 2012)
